This assay has as its system OVCAR-5 complex spheroids, viability. In words: Anticancer human tumor OVCAR-5 cell line growth inhibition.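 On all read-outs here: spheroids exposed to agents for seven days.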 The conditions noted are these: for viability, T/C: stronger effect = lower value. The source says:
Multicellular complex tumor spheroid response to LSD1 Inhibitor Iadademstat in combination with a variety of drugs and investigational agents in selected tumor cell lines
The current study was undertaken to assess response to LSD1 inhibitors in combination with standard-of-care drugs and investigational agents in solid tumor complex spheroid models as well as in the K-562 leukemia. Complex spheroids include a stromal component modeled by human endothelial cells (HUVEC) and fibroblasts modeled by human mesenchymal stem cells (MSCs). The concentration ranges selected for each drug and investigational agent were based upon clinically achievable concentrations if the clinical Cmax of the agent was known.
Compounds. The drugs and investigational agents used in this study are listed on Table 1. All of the agents used, including staurosporine (NSC755774) and gemcitabine (NSC613327), were obtained from the Developmental Therapeutics Program, NCI. FDA-approved anticancer drugs are available from the NCI at http://dtp.nci.nih.gov/branches/dscb/oncology_drugset_explanation.html. Drugs and investigational agents were >95% pure by proton nuclear magnetic resonance (NMR) and liquid chromatography/mass spectrometry (LC/MS). Stock solutions were prepared at 400x in DMSO, stored at -70 degrees C, and diluted in fresh medium prior to their use. The final concentration of DMSO in cell culture wells never exceeded 0.25% (v/v). The FDA-approved anticancer drug set is available from the Developmental Therapeutics Program at https://dtp.cancer.gov/organization/dscb/obtaining/available_plates.htm. All drugs and investigational agents were tested over a range starting from a high concentration at or near the clinical Cmax and decreasing in half-log increments. If the clinical Cmax for an agent had not been determined, the highest concentration tested was 10 microM.
Cell Lines. The patient-derived cancer cell (PDC) lines: 292921-168-R-J2-PDC, K24384-001-R-PDC, and 521955-158-R2-J5-PDC pancreatic carcinomas, 556581-035-R-J1 ovarian carcinoma, 324938-238-R-J1-PDC, 855422-203-R-J1-PDC and 883617-216-R-J1-PDC urothelial bladder carcinomas, 743489-274-T-PDC renal cell carcinoma, 138582-R-J1 Merkel cell tumor, K60290-347-R-J1 and K57222-313-R-J1-PDC glioblastomas, 653999-131-R-J2-PDC, LG0703-F948-PDC, and 349418-098-R-PDC non-small cell lung carcinomas, 885512-296-R-J2-PDC, 171881-019-R-J1-PDC breast carcinomas and 186277-243-T-J2-PDC and 233499-124-R-J2-PDC colon carcinomas were obtained from the NCI Patient-Derived Models Repository (PDMR, https://pdmr.cancer.gov). The established cell lines NCI/ADR-RES (RRID:CVCL_14520 and OVCAR-5 (RRID:CVCL_1628) ovarian carcinomas, 786-O (RRID:CVCL_1051) and A498 […] renal cell carcinoma, NCI-H211 (ATCC, cat. CRL-5824; RRID:CVCL_1529), NCI-H196 (ATCC, cat. CRL-5823, RRID:CVCL_1509), SW 1271 (ATCC, cat. CRL-2177, RRID:CVCL_1716) and NCI-H1876 (ATCC, cat. CRL-5902, RRID:CVCL_1503) small cell lung carcinomas, MDA-MB-231 (RRID:CVCL_0062) and MDA-MB-468 (RRID:CVCL_0419)breast carcinomas (10-12). Pooled donor human umbilical vein endothelial cells (HUVEC, Lonza, cat. CC-2519) and human mesenchymal stem cells (hMSC, Lonza, cat. PT-2501) were purchased from Lonza (Walkersville, MD).
Cell Culture. All cells were maintained in an incubator at 37 degrees C and 5% CO2 with 95% humidity. The PDC lines were cultured according to standard operating procedures established by the NCI PDMR (https://pdmr.cancer.gov). Briefly all PDCs were thawed and cultured in Matrigel-coated flasks prepared with a working solution of 1X Ham's F-12 nutrient mix, without supplementation (Invitrogen, Waltham, MA, cat. 11765054), 100 U/mL penicillin-streptomycin (Invitrogen, cat. 15140122), and 2.5% Matrigel (Corning Inc., Corning, NY, cat. 354248) for the first three passages. […]

“And” between values parts separate entries of the source, which are not always exact repeats. Equal values may be shown once. A value given as a limit tells only on which side of the number the result lay.

This is an account of results in PubChem BioAssay AID1918956 (Molecular Pharmacology Branch, DTP, NCI, 2023).

Usually viability, T/C stands for the ratio of treated to control. A word on the IC50: it is the midpoint of a concentration-inhibition curve. Take `CC(C)c1c(-c2ccccc2)nc2c(C#N)c[nH]n2c1=O`: the viability, T/C (compound 0.0316 µM) is 117% and 105%; the viability, T/C (compound 0.1 µM) was 108% and 94.7%; the viability, T/C (compound 0.316 µM) is 107% and 104%; the viability, T/C (compound 1 µM) was 107% and 102%; the viability, T/C (compound 3.16 µM) was 117% and 104%; the viability, T/C (compound 10 µM) is 104% and 100%. The IC50 (curve of compound) is greater than 10000 nM.

In the case of `CC1COCCN1c1cc(C2(S(C)(=N)=O)CC2)nc(-c2ccnc3[nH]ccc23)n1` (stereo unspecified), the viability, T/C runs as follows: (compound 0.0316 µM) 106% and 102%; (compound 0.1 µM) 110% and 101%; (compound 0.316 µM) 90.1% and 76%; (compound 1 µM) 57.5% and 48.9%; (compound 3.16 µM) 41.4% and 34.1%; (compound 10 µM) 35.5% and 25.4%. For the same compound, under “curve of compound”, the 50% inhibitory concentration (IC50) was 1640 nM and 957 nM.

`COc1ccc([C@@H](O)c2cc(-c3ncnc4cc(N5CCOCC5)ccc34)c(F)cc2Cl)nn1`: the viability, T/C is, setting by setting: (compound 0.0316 µM) 92.1% and 91.6%; (compound 0.1 µM) 91.6% and 84.7%; (compound 0.316 µM) 73.3% and 58.1%; (compound 1 µM) 55.4% and 44.1%; (compound 3.16 µM) 45.3% and 32.7%; (compound 10 µM) 24.9% and 18.4%. Also, the IC50 (curve of compound) was 1790 nM and 690 nM.

Consider `NC1CC1c1ccc(-c2cccc(O)c2)cc1` (stereo unspecified), for which, for the setting “compound 10 µM”, the viability, T/C was 89.8% [middle of 25 runs]. Further, the IC50 (compound alone, run of 12/07/2021) was greater than 10000 nM.

Take `NC1CCC(NC2CC2c2ccccc2)CC1` (stereo unspecified): the viability, T/C was 102% [middle of 25 runs] (compound 0.1 µM); 119% and 98.5% (compound 0.316 µM). Also, the concentration for half-maximal inhibition (IC50) (compound alone, run of 11/29/2021) is greater than 10000 nM.

Take `Nc1ncn(C2CC(O)C(CO)O2)c(=O)n1` (stereo unspecified) + NC1CC1c1ccc(-c2cccc(O)c2)cc1: the 50% inhibitory concentration (IC50) was greater than 1000 nM (curve of first compound, second compound 0.1 µM); greater than 1000 nM (curve of first compound, second compound 0.316 µM); greater than 1000 nM (curve of first compound, second compound 1 µM); greater than 1000 nM (curve of first compound, second compound 3.16 µM); greater than 1000 nM (curve of first compound, second compound 10 µM). The viability, T/C runs as follows: (second compound 0.1 µM, first compound 0.00316 µM) 103%; (second compound 0.1 µM, first compound 0.01 µM) 98.5%; (second compound 0.1 µM, first compound 0.0316 µM) 83.4%; (second compound 0.1 µM, first compound 0.1 µM) 74.2%; (second compound 0.1 µM, first compound 0.316 µM) 68.2%; (second compound 0.1 µM, first compound 1 µM) 65.8%. The viability, T/C was 93.6% (second compound 0.316 µM, first compound 0.00316 µM); 98.5% (second compound 0.316 µM, first compound 0.01 µM); 87.4% (second compound 0.316 µM, first compound 0.0316 µM); 70.5% (second compound 0.316 µM, first compound 0.1 µM); 70.2% (second compound 0.316 µM, first compound 0.316 µM); 66.2% (second compound 0.316 µM, first compound 1 µM). The viability, T/C runs as follows: (second compound 1 µM, first compound 0.00316 µM) 94.9%; (second compound 1 µM, first compound 0.01 µM) 99.6%; (second compound 1 µM, first compound 0.0316 µM) 87.6%; (second compound 1 µM, first compound 0.1 µM) 66.1%; (second compound 1 µM, first compound 0.316 µM) 67.8%; (second compound 1 µM, first compound 1 µM) 66.7%. For the same compound, the viability, T/C is 89% (second compound 3.16 µM, first compound 0.00316 µM); 85.9% (second compound 3.16 µM, first compound 0.01 µM); 70.3% (second compound 3.16 µM, first compound 0.0316 µM); 72% (second compound 3.16 µM, first compound 0.1 µM); 61.1% (second compound 3.16 µM, first compound 0.316 µM); 64.5% (second compound 3.16 µM, first compound 1 µM). Further, the viability, T/C is 83% (second compound 10 µM, first compound 0.00316 µM); 80.1% (second compound 10 µM, first compound 0.01 µM); 72% (second compound 10 µM, first compound 0.0316 µM); 60.3% (second compound 10 µM, first compound 0.1 µM); 58% (second compound 10 µM, first compound 0.316 µM); 61.2% (second compound 10 µM, first compound 1 µM).
